Calls of active or inactive are those of the source. The calls are words filed in the database; no cut-off is given here.
Key:
Estrogen receptor beta [1] = molecular target: T1, Estrogen receptor beta (Homo sapiens, UniProt Q92731); experiment: Agonist activity at full length ERbeta (unknown origin) after 24 hrs by cell based ERE-driven luciferase reporter gene assay
Estrogen receptor beta [2] = molecular target: T1, Estrogen receptor beta
Description: Antagonist activity at full length ERbeta (unknown origin) assessed as reduction in E2 induced response after 24 hrs by cell based ERE-driven luciferase reporter gene assay

Estrogen receptor [3] = molecular target: T2, Estrogen receptor (Homo sapiens, UniProt P03372); experiment: Agonist activity at full length ERalpha (unknown origin) after 24 hrs by ERE-driven luciferase reporter gene assay
T2 sequence (P03372 whole entry): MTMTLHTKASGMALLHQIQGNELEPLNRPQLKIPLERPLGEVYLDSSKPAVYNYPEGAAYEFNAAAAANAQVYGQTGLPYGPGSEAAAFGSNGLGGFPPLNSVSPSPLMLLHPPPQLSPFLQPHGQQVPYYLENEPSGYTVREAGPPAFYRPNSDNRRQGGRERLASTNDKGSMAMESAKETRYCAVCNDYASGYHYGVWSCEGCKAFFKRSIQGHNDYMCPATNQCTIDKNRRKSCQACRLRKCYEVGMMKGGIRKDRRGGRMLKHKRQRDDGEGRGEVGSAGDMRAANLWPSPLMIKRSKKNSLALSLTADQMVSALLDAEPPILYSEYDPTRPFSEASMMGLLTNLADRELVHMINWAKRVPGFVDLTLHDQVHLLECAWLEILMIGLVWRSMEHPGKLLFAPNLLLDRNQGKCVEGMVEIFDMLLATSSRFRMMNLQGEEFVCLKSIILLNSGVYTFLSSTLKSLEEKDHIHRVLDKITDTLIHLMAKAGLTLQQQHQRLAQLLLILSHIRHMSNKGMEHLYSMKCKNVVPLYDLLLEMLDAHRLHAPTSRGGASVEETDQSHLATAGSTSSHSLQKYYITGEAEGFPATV

Estrogen receptor [4] = molecular target: T2, Estrogen receptor; experiment: Antagonist activity at full length ERalpha (unknown origin) assessed as reduction in E2 induced response after 24 hrs by cell based ERE-driven luciferase reporter gene assay
Estrogen receptor beta [5] = molecular target: T1, Estrogen receptor beta; experiment: Inhibition of fluorescein-tagged estrogen binding to GST-tagged ERbeta (unknown origin) ligand binding domain after 1 hr by LanthaScreen TR-FRET assay
Estrogen receptor beta [6] = molecular target: T1, Estrogen receptor beta; experiment: Agonist activity at GAL4 DNA-binding domain fused ERbeta (unknown origin) ligand binding domain expressed in UAS-bla GripTite 293 cells assessed as beta-lactamase transcriptional activation by FRET-based GeneBLAzer assay; format: cell-based
[7] = molecular target: Mineralocorticoid receptor (Homo sapiens) (UniProt P08235); experiment: Agonist activity at GAL4 DNA-binding domain fused MR (unknown origin) ligand binding domain expressed in UAS-bla […] assessed as beta-lactamase transcriptional activation by FRET-based GeneBLAzer assay; format: cell-based
Estrogen receptor [8] = molecular target: T2, Estrogen receptor; experiment: Inhibition of fluorescein-tagged estrogen binding to GST-tagged ERalpha (unknown origin) ligand binding domain after 1 hr by LanthaScreen TR-FRET assay
[9] = molecular target: Estrogen receptor (Homo sapiens) (UniProt P03372); experiment: Agonist activity at GAL4 DNA-binding domain fused ERalpha (unknown origin) ligand binding domain expressed in UAS-bla GripTite 293 cells assessed as beta-lactamase transcriptional activation by FRET-based GeneBLAzer assay; format: cell-based
Estrogen receptor [10] = molecular target: T2, Estrogen receptor; experiment: Agonist activity at ERalpha (unknown origin) ligand binding domain assessed as fluorescein-labeled coactivator peptide recruitment by LanthaScreen TR-FRET assay
[11] = molecular target: Vitamin D3 receptor (Homo sapiens) (UniProt P11473); experiment: Agonist activity at GAL4 DNA-binding domain fused VDR (unknown origin) ligand binding domain expressed in UAS-bla HEK 293T cells assessed as beta-lactamase transcriptional activation by FRET-based GeneBLAzer assay; format: cell-based
Estrogen receptor beta [12] = molecular target: T1, Estrogen receptor beta; experiment: Agonist activity at ERbeta (unknown origin) ligand binding domain assessed as fluorescein-labeled coactivator peptide recruitment by LanthaScreen TR-FRET assay
Homo sapiens [13] = organism: Homo sapiens; experiment: Selectivity index, ratio of EC50 for ERalpha (unknown origin) LBD by fluorescein-labeled coactivator peptide recruitment based LanthaScreen TR-FRET assay to EC50 for ERbeta (unknown origin) LBD by fluorescein-labeled coactivator peptide recruitment based LanthaScreen TR-FRET assay
[14] = molecular target: Progesterone receptor (Homo sapiens) (UniProt P06401); experiment: (§1) Agonist activity at GAL4 DNA-binding domain fused PR (unknown origin) ligand binding domain expressed in UAS-bla HEK 293T cells assessed as beta-lactamase transcriptional activation by FRET-based GeneBLAzer assay; format: cell-based
[15] = molecular target: Peroxisome proliferator-activated receptor delta (Homo sapiens) (UniProt Q03181); experiment: (§2) Agonist activity at GAL4 DNA-binding domain fused PPARdelta receptor (unknown origin) ligand binding domain expressed in UAS-bla HEK 293T cells assessed as beta-lactamase transcriptional activation by FRET-based GeneBLAzer assay; format: cell-based
Progesterone receptor = Progesterone receptor (Homo sapiens, UniProt P06401); experiment: as §1; format: cell-based
Cytochrome P450 2C9 = Cytochrome P450 2C9 (Homo sapiens, UniProt P11712); experiment: Inhibition of CYP2C9 (unknown origin) using luciferin-H as substrate preincubated for 10 mins followed by NADPH regeneration system addition and measured after 30 mins by Promega P450-GloScreening assay; format: ADME
[16] = molecular target: Histamine H2 receptor (Homo sapiens) (UniProt P25021); experiment: Displacement of [125I]-iodoaminopotentidine from human histamine H2 receptor expressed in HEK Flp-In cells at 10 uM after 90 mins by microbeta scintillation counting method; format: cell-based
[17] = molecular target: Sigma non-opioid intracellular receptor 1 (Homo sapiens) (UniProt Q99720); experiment: Displacement of [3H]-Pentazocine from human sigma1 receptor expressed in HEKT cells at 10 uM after 90 mins by microbeta scintillation counting method; format: cell-based
[18] = molecular target: Histamine H2 receptor (Homo sapiens) (UniProt P25021); experiment: Displacement of [3H]-histamine from human histamine H2 receptor expressed in HEKT cells at 10 uM after 90 mins by microbeta scintillation counting method; format: cell-based
[19] = molecular target: Alpha-1A adrenergic receptor (Homo sapiens) (UniProt P35348); experiment: Displacement of [3H]-Prazosin from human adrenergic alpha1A receptor at 10 uM after 90 mins by microbeta scintillation counting method
Cytochrome P450 3A4 = Cytochrome P450 3A4 (Homo sapiens, UniProt P08684); experiment: Inhibition of CYP3A4 (unknown origin) using luciferin-IPA as substrate preincubated for 10 mins followed by NADPH regeneration system addition and measured after 10 to 30 mins by Promega P450-GloScreening assay; format: ADME
[20] = molecular target: 5-hydroxytryptamine receptor 7 (Homo sapiens) (UniProt P34969); experiment: Displacement of [3H]-LSD from human 5-HT7A receptor expressed in stable HEK cells at 10 uM after 90 mins by microbeta scintillation counting method; format: cell-based
[21] = molecular target: 5-hydroxytryptamine receptor 1D (Homo sapiens) (UniProt P28221); experiment: Displacement of [3H]-5-CT from human 5-HT1D receptor expressed in HEKT cells at 10 uM after 90 mins by microbeta scintillation counting method; format: cell-based
[22] = molecular target: 5-hydroxytryptamine receptor 6 (Homo sapiens) (UniProt P50406); experiment: Displacement of [3H]-LSD from human 5-HT6 receptor expressed in stable HEK cells at 10 uM after 90 mins by microbeta scintillation counting method; format: cell-based
[23] = molecular target: Alpha-1B adrenergic receptor (Homo sapiens) (UniProt P35368); experiment: Displacement of [3H]-Prazosin from human adrenergic alpha1B receptor expressed in HEKT cells at 10 uM after 90 mins by microbeta scintillation counting method; format: cell-based
[24] = molecular target: 5-hydroxytryptamine receptor 1A (Homo sapiens) (UniProt P08908); experiment: Displacement of [3H]-WAY100635 from human 5HT1A receptor expressed in stable CHO cells at 10 uM after 90 mins by microbeta scintillation counting method; format: cell-based
[25] = Solubility of the compound in buffer containing 20 mM potassium phosphate of pH 7.5 and 1% DMSO up to 250 uM by nephelometry; format: physicochemical
Cytochrome P450 1A2 = Cytochrome P450 1A2 (Homo sapiens, UniProt P05177); experiment: Inhibition of CYP1A2 (unknown origin) using luciferin-ME as substrate preincubated for 10 mins followed by NADPH regeneration system addition and measured after 10 to 30 mins by Promega P450-GloScreening assay; format: ADME
[26] = molecular target: 5-hydroxytryptamine receptor 2B (Homo sapiens) (UniProt P41595); experiment: Displacement of [3H]-LSD from human 5-HT2B receptor expressed in stable HEK cells at 10 uM after 90 mins by microbeta scintillation counting method; format: cell-based
[27] = molecular target: Beta-3 adrenergic receptor (Homo sapiens) (UniProt P13945); experiment: Displacement of [3H]-CGP12177 from human adrenergic beta3 receptor expressed in Flp-In HEK cells at 10 uM after 90 mins by microbeta scintillation counting method; format: cell-based
[28] = molecular target: Sigma intracellular receptor 2 (Homo sapiens) (UniProt Q5BJF2); experiment: Displacement of [3H]-ditolylguanidine from human sigma2 receptor expressed in HEKT cells at 10 uM after 90 mins by microbeta scintillation counting method; format: cell-based
[29] = molecular target: Beta-1 adrenergic receptor (Homo sapiens) (UniProt P08588); experiment: Displacement of [3H]-Pindolol from human adrenergic beta1 receptor expressed in Flp-In CHO cells at 10 uM after 90 mins by microbeta scintillation counting method; format: cell-based
Cytochrome P450 2D6 = Cytochrome P450 2D6 (Homo sapiens, UniProt P10635); experiment: Inhibition of CYP2D6 (unknown origin) using luciferin-ME EGE as substrate preincubated for 10 mins followed by NADPH regeneration system addition and measured after 30 to 45 mins by Promega P450-GloScreening assay; format: ADME
hERG (KCNH2) = hERG (KCNH2) (Homo sapiens, UniProt Q12809); experiment: Displacement of [3H]-dofetilide from human ERG expressed in HEK cells at 10 uM after 90 mins by microbeta scintillation counting method; format: cell-based; settings: HEK cells expressing human ERG, probe [3H]-dofetilide
MCF7 = experiment: Antiproliferative activity against human MCF7 cells at 0.01 to 10 uM after 24 hrs by MTT assay; format: functional, cell-based
Homo sapiens [30] = organism: Homo sapiens; experiment: Selectivity ratio for ERbeta (unknown origin) over ERalpha (unknown origin)
[31] = molecular target: Peroxisome proliferator-activated receptor delta (Homo sapiens, UniProt Q03181); experiment: as §2; format: cell-based
Homo sapiens [32] = organism: Homo sapiens; experiment: Selectivity index, ratio of IC50 for full-length human ERalpha to IC50 for full length human ERbeta

T1 sequence (Q92731 whole entry): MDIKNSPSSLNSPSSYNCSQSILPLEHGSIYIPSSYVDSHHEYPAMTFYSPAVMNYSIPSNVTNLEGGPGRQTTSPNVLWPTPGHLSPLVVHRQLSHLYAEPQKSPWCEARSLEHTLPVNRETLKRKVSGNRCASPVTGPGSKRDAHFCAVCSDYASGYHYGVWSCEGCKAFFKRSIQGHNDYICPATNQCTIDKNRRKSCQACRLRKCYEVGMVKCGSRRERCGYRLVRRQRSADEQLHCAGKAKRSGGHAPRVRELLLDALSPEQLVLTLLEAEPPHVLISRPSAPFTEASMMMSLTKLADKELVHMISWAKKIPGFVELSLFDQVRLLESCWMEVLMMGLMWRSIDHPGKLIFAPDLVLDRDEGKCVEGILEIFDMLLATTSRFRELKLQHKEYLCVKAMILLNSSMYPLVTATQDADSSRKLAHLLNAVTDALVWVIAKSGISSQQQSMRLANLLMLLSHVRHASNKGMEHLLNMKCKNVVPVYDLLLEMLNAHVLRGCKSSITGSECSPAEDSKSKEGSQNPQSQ
Histamine H2 receptor (Homo sapiens), sequence (P25021 whole entry): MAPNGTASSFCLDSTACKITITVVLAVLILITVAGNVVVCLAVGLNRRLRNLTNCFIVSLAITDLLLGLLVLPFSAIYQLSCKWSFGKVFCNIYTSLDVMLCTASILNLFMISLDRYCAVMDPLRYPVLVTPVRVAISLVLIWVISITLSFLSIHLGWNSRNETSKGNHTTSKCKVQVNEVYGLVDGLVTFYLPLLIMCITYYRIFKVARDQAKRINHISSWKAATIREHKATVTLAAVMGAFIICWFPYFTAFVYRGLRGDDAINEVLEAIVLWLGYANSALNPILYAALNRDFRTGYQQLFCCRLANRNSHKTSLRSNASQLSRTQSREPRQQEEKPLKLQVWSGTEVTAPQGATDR
Cytochrome P450 1A2, sequence (P05177 whole entry): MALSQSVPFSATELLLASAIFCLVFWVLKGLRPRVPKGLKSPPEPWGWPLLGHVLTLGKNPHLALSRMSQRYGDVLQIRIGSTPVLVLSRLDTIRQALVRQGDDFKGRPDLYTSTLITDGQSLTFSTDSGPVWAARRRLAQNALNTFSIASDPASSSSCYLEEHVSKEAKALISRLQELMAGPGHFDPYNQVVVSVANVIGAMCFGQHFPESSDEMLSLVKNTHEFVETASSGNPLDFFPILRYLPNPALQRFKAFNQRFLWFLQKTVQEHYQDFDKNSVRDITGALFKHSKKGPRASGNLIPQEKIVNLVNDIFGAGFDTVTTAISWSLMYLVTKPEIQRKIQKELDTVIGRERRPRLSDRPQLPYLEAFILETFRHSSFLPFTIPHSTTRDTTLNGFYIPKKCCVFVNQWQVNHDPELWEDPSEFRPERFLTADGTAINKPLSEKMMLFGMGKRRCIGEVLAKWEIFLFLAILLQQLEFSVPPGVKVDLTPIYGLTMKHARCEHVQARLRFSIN
Peroxisome proliferator-activated receptor delta (Homo sapiens), sequence (Q03181 whole entry, the tested form may be a part): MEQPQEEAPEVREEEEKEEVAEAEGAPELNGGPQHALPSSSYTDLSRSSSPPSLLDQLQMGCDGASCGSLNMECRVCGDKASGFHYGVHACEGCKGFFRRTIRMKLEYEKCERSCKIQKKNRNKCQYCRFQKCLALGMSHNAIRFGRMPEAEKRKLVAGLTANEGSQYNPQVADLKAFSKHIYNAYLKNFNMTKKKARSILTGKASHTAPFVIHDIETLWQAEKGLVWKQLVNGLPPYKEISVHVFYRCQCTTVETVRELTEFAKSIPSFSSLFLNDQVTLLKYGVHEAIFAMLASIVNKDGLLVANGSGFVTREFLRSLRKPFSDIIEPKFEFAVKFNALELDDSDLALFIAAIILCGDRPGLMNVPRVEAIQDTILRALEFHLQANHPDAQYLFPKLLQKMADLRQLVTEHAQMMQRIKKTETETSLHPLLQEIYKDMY
Peroxisome proliferator-activated receptor delta, sequence (Q03181 whole entry): as the sequence (Q03181 whole entry, the tested form may be a part) above
Sigma intracellular receptor 2 (Homo sapiens), sequence (Q5BJF2 whole entry): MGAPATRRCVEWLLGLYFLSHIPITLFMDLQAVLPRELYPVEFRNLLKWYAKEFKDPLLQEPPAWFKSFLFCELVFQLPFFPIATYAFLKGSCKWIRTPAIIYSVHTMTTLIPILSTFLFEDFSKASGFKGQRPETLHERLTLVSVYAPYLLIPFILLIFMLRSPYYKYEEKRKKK
Beta-1 adrenergic receptor (Homo sapiens), sequence (P08588 whole entry, looked up): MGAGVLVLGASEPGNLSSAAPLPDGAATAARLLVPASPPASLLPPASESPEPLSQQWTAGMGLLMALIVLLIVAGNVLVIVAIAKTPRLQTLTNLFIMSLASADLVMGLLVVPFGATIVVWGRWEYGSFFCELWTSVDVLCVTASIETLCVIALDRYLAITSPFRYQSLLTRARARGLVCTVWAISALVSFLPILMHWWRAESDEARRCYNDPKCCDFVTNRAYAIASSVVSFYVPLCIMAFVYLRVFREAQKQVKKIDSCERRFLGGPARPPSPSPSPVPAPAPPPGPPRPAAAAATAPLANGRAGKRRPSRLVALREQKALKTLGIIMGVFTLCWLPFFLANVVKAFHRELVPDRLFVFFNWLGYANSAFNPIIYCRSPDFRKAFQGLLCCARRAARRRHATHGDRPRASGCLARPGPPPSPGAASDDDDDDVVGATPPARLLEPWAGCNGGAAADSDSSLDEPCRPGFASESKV
Mineralocorticoid receptor (Homo sapiens), sequence (P08235 whole entry, the tested form may be a part): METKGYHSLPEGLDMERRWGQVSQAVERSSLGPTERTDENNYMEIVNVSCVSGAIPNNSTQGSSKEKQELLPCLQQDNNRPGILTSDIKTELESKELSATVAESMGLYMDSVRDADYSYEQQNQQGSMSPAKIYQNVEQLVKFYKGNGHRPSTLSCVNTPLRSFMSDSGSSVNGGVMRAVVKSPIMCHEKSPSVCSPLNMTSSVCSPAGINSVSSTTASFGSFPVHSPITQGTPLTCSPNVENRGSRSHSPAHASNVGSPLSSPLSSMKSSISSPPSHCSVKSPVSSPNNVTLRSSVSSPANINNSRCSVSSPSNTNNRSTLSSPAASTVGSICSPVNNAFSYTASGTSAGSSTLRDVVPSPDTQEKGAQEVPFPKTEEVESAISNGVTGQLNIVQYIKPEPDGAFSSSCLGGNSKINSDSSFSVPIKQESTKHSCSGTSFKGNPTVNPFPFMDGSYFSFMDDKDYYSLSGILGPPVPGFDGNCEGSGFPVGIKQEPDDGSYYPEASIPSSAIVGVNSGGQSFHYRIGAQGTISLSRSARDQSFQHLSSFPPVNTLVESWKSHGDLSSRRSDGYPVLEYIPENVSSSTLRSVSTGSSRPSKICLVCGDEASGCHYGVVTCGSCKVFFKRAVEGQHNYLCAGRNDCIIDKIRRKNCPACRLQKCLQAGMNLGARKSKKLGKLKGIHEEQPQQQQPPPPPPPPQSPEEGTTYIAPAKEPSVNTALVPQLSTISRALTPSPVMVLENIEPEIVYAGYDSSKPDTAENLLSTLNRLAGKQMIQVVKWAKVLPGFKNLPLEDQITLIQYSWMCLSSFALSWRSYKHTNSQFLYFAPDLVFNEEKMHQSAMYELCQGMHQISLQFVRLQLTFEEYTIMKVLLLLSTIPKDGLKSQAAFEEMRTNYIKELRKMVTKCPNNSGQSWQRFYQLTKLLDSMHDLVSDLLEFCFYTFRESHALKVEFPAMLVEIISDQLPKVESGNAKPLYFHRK
hERG (KCNH2), sequence (Q12809 whole entry): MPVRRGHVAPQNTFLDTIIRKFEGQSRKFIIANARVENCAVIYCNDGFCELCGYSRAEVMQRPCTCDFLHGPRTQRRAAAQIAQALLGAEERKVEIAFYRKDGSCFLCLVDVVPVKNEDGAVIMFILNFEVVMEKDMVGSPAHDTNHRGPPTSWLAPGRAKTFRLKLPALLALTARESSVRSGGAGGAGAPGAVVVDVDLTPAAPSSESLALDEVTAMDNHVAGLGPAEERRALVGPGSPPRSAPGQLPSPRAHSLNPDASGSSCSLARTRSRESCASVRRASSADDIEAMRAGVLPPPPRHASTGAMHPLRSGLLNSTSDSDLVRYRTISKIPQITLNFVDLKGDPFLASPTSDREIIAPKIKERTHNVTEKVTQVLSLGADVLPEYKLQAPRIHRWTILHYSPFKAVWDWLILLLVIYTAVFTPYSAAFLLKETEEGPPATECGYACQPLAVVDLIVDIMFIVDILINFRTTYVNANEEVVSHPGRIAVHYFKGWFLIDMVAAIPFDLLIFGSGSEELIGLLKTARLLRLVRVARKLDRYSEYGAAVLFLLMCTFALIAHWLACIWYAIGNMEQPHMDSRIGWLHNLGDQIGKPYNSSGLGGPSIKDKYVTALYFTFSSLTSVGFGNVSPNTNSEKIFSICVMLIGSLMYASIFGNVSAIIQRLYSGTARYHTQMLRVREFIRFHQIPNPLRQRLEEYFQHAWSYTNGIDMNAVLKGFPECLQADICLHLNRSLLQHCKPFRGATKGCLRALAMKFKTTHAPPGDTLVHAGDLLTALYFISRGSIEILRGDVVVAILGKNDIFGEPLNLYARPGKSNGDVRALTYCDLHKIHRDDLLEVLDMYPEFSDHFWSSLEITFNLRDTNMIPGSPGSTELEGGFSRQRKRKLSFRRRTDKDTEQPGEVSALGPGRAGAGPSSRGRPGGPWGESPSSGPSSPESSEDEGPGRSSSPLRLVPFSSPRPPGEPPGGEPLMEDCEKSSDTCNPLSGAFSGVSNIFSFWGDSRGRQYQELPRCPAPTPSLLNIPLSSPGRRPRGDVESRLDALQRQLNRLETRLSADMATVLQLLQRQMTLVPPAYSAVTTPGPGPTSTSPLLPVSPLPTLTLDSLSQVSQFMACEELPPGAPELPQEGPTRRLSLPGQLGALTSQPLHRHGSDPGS
Sigma non-opioid intracellular receptor 1 (Homo sapiens), sequence (Q99720 whole entry): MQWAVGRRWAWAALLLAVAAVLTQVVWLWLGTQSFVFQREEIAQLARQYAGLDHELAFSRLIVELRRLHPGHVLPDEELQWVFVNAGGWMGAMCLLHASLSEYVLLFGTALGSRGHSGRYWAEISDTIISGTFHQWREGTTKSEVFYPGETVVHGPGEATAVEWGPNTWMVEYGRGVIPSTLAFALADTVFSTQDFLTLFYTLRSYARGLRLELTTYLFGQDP

SMILES | EC50 (Estrogen receptor beta [1]) | EC50 (Estrogen receptor beta [2]) | EC50 (Estrogen receptor [3]) | EC50 (Estrogen receptor [4]) | EC50 (Estrogen receptor beta [5]) | EC50 (Estrogen receptor [8]) | other results
O/N=C1\CCCC(c2ccc(O)cc2)CC1 (racemic) | > 800 nM | > 10000 nM | > 10000 nM | > 10000 nM | 600 nM |  | 
OCCC1CCCC(c2ccc(O)cc2)CC1 (racemic) | 139 nM | > 10000 nM | > 10000 nM | > 10000 nM | 75 nM |  | 
OC[C@@H]1CCC[C@H](c2ccc(O)cc2)CC1 | 51 nM | > 11600 nM | > 11600 nM | > 11600 nM | 66 nM | 199 nM | Activity (Estrogen receptor beta [6]): Active; Activity [7]: inactive; Activity [9]: Active; EC50 (Estrogen receptor [10]): 2660 nM; Activity [11]: inactive; EC50 (Estrogen receptor beta [12]): 566 nM; Ratio EC50 (Homo sapiens [13]): 4.7; Activity [14]: inactive; Activity [15]: inactive
CCC(=O)[C@@]1(C)CC[C@H]2[C@@H]3CCC4=CC(=O)CCC4=C3CC[C@@]21C [PROMEGESTONE] |  |  |  |  |  |  | IC50 (Progesterone receptor): 0.236 nM
OCC1CCCC(c2ccc(O)cc2)CC1 (racemic) | 33 nM | > 100000 nM | 10500 nM | > 10000 nM | 53 nM | 99 nM | IC50 (Cytochrome P450 2C9): 2700 nM; inhibition [16]: 2.7%; inhibition [17]: 17.1%; inhibition [18]: -0.1%; inhibition [19]: -3.7%; IC50 (Cytochrome P450 3A4): 33000 nM; inhibition [20]: -8.5%; inhibition [21]: 25.3%; inhibition [22]: 19%; inhibition [23]: -4.9%; inhibition [24]: 14.6%; solubility [25]: Soluble; IC50 (Cytochrome P450 1A2): 130000 nM; inhibition [26]: -7.3%; inhibition [27]: 16%; inhibition [28]: 31.9%; inhibition [29]: -4.8%; IC50 (Cytochrome P450 2D6): 73000 nM; inhibition at 1.5 h, 10 µM (hERG (KCNH2)): -1.7%; Activity (MCF7): Active
C=Cc1cc(O)cc2nc(-c3ccc(O)cc3)oc12 |  |  |  |  |  |  | Selectivity ratio (Homo sapiens [30]): 127
O=C1CCCC(c2ccc(O)cc2)CC1 (racemic) |  |  |  |  | 435 nM |  | 
Oc1ccc(C23CCCC(CC2)CO3)cc1 (racemic) |  |  |  |  | 509 nM |  | 
Oc1ccc(C2CCCC(O)CC2)cc1 (racemic) | 362 nM | > 10000 nM | > 10000 nM | > 10000 nM | 42 nM |  | 
OC[C@H]1CCC[C@@H](c2ccc(O)cc2)CC1 | 121 nM | > 10000 nM | > 10000 nM | > 10000 nM | 99 nM | 221 nM | 
N#Cc1cc(O)cc2c3c(oc12)-c1ccc(O)cc1CC3 |  |  |  |  |  |  | Selectivity ratio (Homo sapiens [30]): 157
OC[C@H]1CCC[C@H](c2ccc(O)cc2)CC1 (stereo in doubt) | 50 nM | > 35600 nM | > 3000 nM | > 35600 nM | 18 nM | 96 nM | 
OC[C@@H]1CCC[C@@H](c2ccc(O)cc2)CC1 (stereo in doubt) | 48 nM | > 23200 nM | > 10000 nM | > 10000 nM | 28 nM | 61 nM | 
CCCc1c(OCCCOc2ccc(OCC(=O)O)cc2)ccc(C(C)=O)c1O |  |  |  |  |  |  | IC50 [31]: 12.6 nM
C=Cc1cc(O)cc2nc(-c3ccc(O)c(F)c3)oc12 |  |  |  |  |  |  | Ratio IC50 (Homo sapiens [32]): 255

Source: ChEMBL document CHEMBL4261581, “Synthesis and evaluation of 4-cycloheptylphenols as selective Estrogen receptor-β agonists (SERBAs)” (Eur J Med Chem, 2018)
